Laboratory results published in the supplement of paper PMC13380429.

Tests used:
[1] = system: A549-ACE2 infected with SARS-CoV-2; experiment: cell count relative to DMSO; higher = less toxic; details: 24 h
Caco-2 [2] = experiment: cell viability relative to DMSO; higher = less toxic; details: 72 h
Calu-3 [3] = experiment: as above; details: 72 h
HepG2 [4] = experiment: as above; details: 72 h
U2OS [5] = experiment: as above; details: 72 h
Vero E6 [6] = experiment: as above; details: 72 h
[7] = system: A549-ACE2 infected with SARS-CoV-2; experiment: SARS-CoV-2 infection rate relative to DMSO; higher = more infection; details: 24 h
A549-ACE2 [8] = experiment: phospholipidosis EC50; higher = less potent phospholipidosis inducer
A549-ACE2 [9] = experiment: drug-induced phospholipidosis relative to tamoxifen; higher = more phospholipidosis
[10] = system: A549-ACE2 infected with SARS-CoV-2; experiment: morphology score (similarity to uninfected cells); higher = more like uninfected cells; details: 24 h
Calu-3 [11] = experiment: relative viability EC50 (midpoint between 100% and the lowest measured viability); higher = less toxic; details: 72 h
U2OS [12] = experiment: as above; details: 72 h
Vero E6 [13] = experiment: as above; details: 72 h
Caco-2 [14] = experiment: drug sensitivity score (DSS) for viability; higher = more toxic; extreme values may be limits of the assay; details: 72 h
Calu-3 [15] = experiment: as above; details: 72 h
HepG2 [16] = experiment: as above; details: 72 h
U2OS [17] = experiment: as above; details: 72 h
Vero E6 [18] = experiment: as above; details: 72 h
Caco-2 [19] = experiment: relative viability EC50 (midpoint between 100% and the lowest measured viability); higher = less toxic; details: 72 h
HepG2 [20] = experiment: as above; details: 72 h

CC/C(=C(\c1ccc(O)cc1)c1ccc(OCCN(C)C)cc1)c1ccccc1 [afimoxifene]
Details | SARS-CoV-2 infection rate [%] | cell count [%] | cell viability [%] | morphology score | phospholipidosis EC50 [µM]
A549-ACE2 [8], 24 h | – | – | – | – | 1.78
A549-ACE2 [8], 48 h | – | – | – | – | 2.82
A549-ACE2 [8], 72 h | – | – | – | – | 3.95
Caco-2 [2], 1 nM | – | – | 93 | – | –
Caco-2 [2], 10 nM | – | – | 91.2 | – | –
Caco-2 [2], 100 nM | – | – | 95.5 | – | –
Caco-2 [2], 1000 nM | – | – | 94 | – | –
Caco-2 [2], 10000 nM | – | – | 66.6 | – | –
Calu-3 [3], 1 nM | – | – | 91.7 | – | –
Calu-3 [3], 10 nM | – | – | 103 | – | –
Calu-3 [3], 100 nM | – | – | 102 | – | –
Calu-3 [3], 1000 nM | – | – | 105 | – | –
Calu-3 [3], 10000 nM | – | – | 25.2 | – | –
HepG2 [4], 1 nM | – | – | 94.6 | – | –
HepG2 [4], 10 nM | – | – | 111 | – | –
HepG2 [4], 100 nM | – | – | 90.7 | – | –
HepG2 [4], 1000 nM | – | – | 112 | – | –
HepG2 [4], 10000 nM | – | – | 54.3 | – | –
U2OS [5], 1 nM | – | – | 96.8 | – | –
U2OS [5], 10 nM | – | – | 94.8 | – | –
U2OS [5], 100 nM | – | – | 102 | – | –
U2OS [5], 1000 nM | – | – | 97.2 | – | –
U2OS [5], 10000 nM | – | – | 77.6 | – | –
Vero E6 [6], 1 nM | – | – | 93.7 | – | –
Vero E6 [6], 10 nM | – | – | 98.9 | – | –
Vero E6 [6], 100 nM | – | – | 99.8 | – | –
Vero E6 [6], 1000 nM | – | – | 104 | – | –
Vero E6 [6], 10000 nM | – | – | 81.2 | – | –
[1], 0.3 µM | – | 99 | – | – | –
[1], 3 µM | – | 121 | – | – | –
[1], 10 µM | – | 117 | – | – | –
[1], 30 µM | – | 81 | – | – | –
[7], 0.3 µM | 112 | – | – | – | –
[7], 3 µM | 47 | – | – | – | –
[7], 10 µM | 13 | – | – | – | –
[7], 30 µM | 68 | – | – | – | –
[10], 0.3 µM | – | – | – | -0.03 | –
[10], 3 µM | – | – | – | 0.75 | –
[10], 10 µM | – | – | – | 0.83 | –
[10], 30 µM | – | – | – | -0.14 | –

drug-induced phospholipidosis [%], A549-ACE2 [9]
Details | 0.3 µM | 0.833333 µM | 3.33333 µM | 6.66667 µM | 10 µM | 30 µM
24 h | 3.39 | 11.5 | 51 | 69.1 | 81.9 | 36.9
48 h | 3.38 | 6.29 | 53.4 | 74.8 | 82.8 | –
72 h | 5.01 | 4.34 | 43.1 | 75.7 | 88.4 | –

Details | drug sensitivity score | relative viability EC50 [µM]
Caco-2 [14] | 2.5 | –
Calu-3 [11] | – | 3.52
Calu-3 [15] | 3.7 | –
HepG2 [16] | 1.8 | –
U2OS [12] | – | > 10
U2OS [17] | 1.2 | –
Vero E6 [13] | – | > 10
Vero E6 [18] | 0.3 | –

CC(=O)OC[C@H]1O[C@@H]([S-])[C@H](OC(C)=O)[C@@H](OC(C)=O)[C@@H]1OC(C)=O.CCP(CC)CC.[Au+] [auranofin]
Details | SARS-CoV-2 infection rate, [7] [%] | cell count, [1] [%] | cell viability, Caco-2 [2] [%] | cell viability, Calu-3 [3] [%] | cell viability, HepG2 [4] [%] | cell viability, U2OS [5] [%] | cell viability, Vero E6 [6] [%] | morphology score, [10]
1 nM | – | – | 99.9 | 100 | 90.6 | 101 | 92.1 | –
10 nM | – | – | 94.2 | 92.8 | 99.4 | 98.2 | 94.2 | –
0.1 µM | 96 | 98 | – | – | – | – | – | 0.03
100 nM | – | – | 101 | 106 | 102 | 98.5 | 93.6 | –
0.3 µM | 91 | 103 | – | – | – | – | – | 0.11
1 µM | 86 | 98 | – | – | – | – | – | 0.34
1000 nM | – | – | 58.6 | 117 | 72.1 | 7.5 | 88.1 | –
3 µM | 64 | 90 | – | – | – | – | – | 0.39
10000 nM | – | – | 0 | 1.2 | -0.1 | 0 | 0 | –

drug-induced phospholipidosis [%], A549-ACE2 [9]
Details | 0.3 µM | 0.833333 µM | 3.33333 µM | 6.66667 µM
24 h | 0.97 | -3.21 | 5.44 | 2.76
48 h | 3.04 | -1.45 | 6.04 | –
72 h | 2.56 | 0.634 | – | –

Details | drug sensitivity score | relative viability EC50 [µM]
Caco-2 [14] | 11 | –
Caco-2 [19] | – | 1.15
Calu-3 [11] | – | 3.86
Calu-3 [15] | 4.5 | –
HepG2 [16] | 9.7 | –
HepG2 [20] | – | 1.46
U2OS [12] | – | 0.383
U2OS [17] | 16.9 | –
Vero E6 [13] | – | 2.19
Vero E6 [18] | 7.5 | –

CCN(CC)C(=S)S [ditiocarb-sodium-trihydrate]
Details | SARS-CoV-2 infection rate, [7] [%] | cell count, [1] [%] | cell viability, Caco-2 [2] [%] | cell viability, Calu-3 [3] [%] | cell viability, HepG2 [4] [%] | cell viability, U2OS [5] [%] | cell viability, Vero E6 [6] [%] | morphology score, [10]
1 nM | – | – | 94.1 | 105 | 97.5 | 101 | 92.8 | –
10 nM | – | – | 97 | 93.1 | 97.9 | 98.9 | 102 | –
100 nM | – | – | 89.3 | 108 | 100 | 101 | 96.3 | –
0.3 µM | 108 | 97 | – | – | – | – | – | -0.22
1000 nM | – | – | 89.2 | 89 | 108 | 101 | 103 | –
3 µM | 98 | 102 | – | – | – | – | – | 0.08
10 µM | 95 | 107 | – | – | – | – | – | 0.19
10000 nM | – | – | 16.7 | 70.2 | 35.6 | 85.5 | 99 | –
30 µM | 62 | 106 | – | – | – | – | – | 0.61

drug-induced phospholipidosis [%], A549-ACE2 [9]
Details | 0.3 µM | 0.833333 µM | 3.33333 µM | 6.66667 µM | 10 µM
24 h | 0.51 | 1.07 | -2.14 | -0.7 | -0.24
48 h | 2.4 | 1.02 | 0.85 | 0.97 | 0.53
72 h | 3.87 | -0.805 | 0.971 | 1.39 | 0.827

Details | drug sensitivity score | relative viability EC50 [µM]
Caco-2 [14] | 6.4 | –
Caco-2 [19] | – | 2.11
Calu-3 [15] | 2.8 | –
HepG2 [16] | 3 | –
HepG2 [20] | – | 3.73
U2OS [12] | – | > 10
U2OS [17] | 0.2 | –
Vero E6 [13] | – | > 10
Vero E6 [18] | 0 | –
